Here are results for eight compounds from patent US7192980B2, “Certain substituted polyketides, pharmaceutical compositions containing them and their use in treating tumors” (Novartis AG, priority 2001, dated 2007).

Common to all, as to assay type: cell-based
In experiment [1] the test system is MIP 101 colon carcinoma. In words: Anchorage Dependent Growth Monolayer Assay (ADGMA), MIP 101. The settings on record: Homo sapiens, Colon carcinoma cell, 72 h; MIP 101 colon carcinoma cells, 3-day exposure, MTT, A540; * = average of two independent experiments. The text has this:
(§1) As indicated above, all of the compounds of formula I are anti-tumor agents and are, therefore, useful in inhibiting the growth of various lymphomas, sarcomas, carcinomas, myelomas, and leukemia cell lines. […] This assay was adapted from the 60 cell line assay used by the National Cancer Institute (NCI) with the following modifications:
(§2) 1) four cell lines representative for the important tumor types, viz., MIP 101 colon carcinoma, HCT 116 colon carcinoma, 1A9 ovarian carcinoma and 1A9PTX22 ovarian carcinoma were utilized; and 2) a tetrazolium derivative, viz., MTT, was utilized to determine cell density.
(§3) The ADGMA compares the number of viable cells following a 3-day exposure to a test compound relative to the number of cells present at the time the test compound was added. […] The absorbance at 540 nm (A540) of the formazan derivative is proportional to the number of viable cells. The IC50 for a test compound is the concentration of compound required to reduce the final cell number to 50% of the final control cell number. If cell proliferation is inhibited, the assay further defines compounds as cytostatic (cell number after 3-day compound incubation>cell number at time of compound addition) or cytotoxic (cell number after 3-day compound incubation<cell number at time of compound addition).
(§4) The HCT 116 colon carcinoma cell line was obtained from the American Type Culture Collection (ATCC, Rockville, Md.). The MIP 101 colon carcinoma was obtained from Dr. Robert Kramer (Bristol Meyers Squibb) and was previously described (Niles R M, Wilhelm S A, Steele G D JR, Burke B, Christensen T, Dexter D, O'Brien M J, Thomas P, Zamcheck N. Isolation and characterization of an undifferentiated human colon carcinoma cell line (MIP 101). Cancer Invest. 1987;5(6):545–52). The 1A9 and the 1A9PTX22 ovarian tumor cell lines were obtained from Dr. Tito Fojo, Medicine Branch, Division of Clinical Sciences, National Cancer Institute, National Institutes of Health, Bethesda, Md. 20892. The 1A9 is a clone of the ovarian carcinoma cell line, A2780 (Giannakakou P, Sackett, D L, Kang Y-K, Zhan Z, Buters J T M, Fojo T, Poruchynsky M S. Paclitaxel-resistant human ovarian cancer cells have mutant β-tubulins that impaired paclitaxel-driven polymerization. J. Biol. Chem. 1997, 272(4):17118–17125). The 1A9PTX22 subline was isolated as an individual clone from the 1A9 cell line in a single step selection by exposure to 5 ng/mL paclitaxel in the presence of 5 μg/mL of verapamil. All cell lines were used between passages 4–20 following thawing. MIP 101 colon carcinoma, HCT 116 colon carcinoma, 1A9 ovarian carcinoma and 1A9PTX22 ovarian carcinoma cell lines are maintained and plated in RPMI 1640 medium containing 10% fetal bovine serum.
(§5) Cells are trypsinized and counted using a hemacytometer to determine cell concentrations. Cells were then plated in their respective maintenance media (200 μL/well) in 96-well plates at the following concentrations: MIP 101, 2000 cells/well, HCT 116, 2000 cells/well, 1A9, 10000 cells/well, and 1A9PTX22, 10000 cells/well. […] Initial cell densities, assayed one day after plating, are roughly 0.10–0.20 A540 absorbance units greater than the media blank. Ninety-six-well plates were seeded on day 0 and the test compounds are added on day 1. A “time 0” plate was created that received media only in row A and one cell line/row in rows B–E. The “time 0” plate was processed 24 hours after plating (at the time when drugs were added to experimental plates), as follows: To each well 5 micoliters of the MTT stock solution (0.5 mg/mL in PBS) was added to each well and then incubated for three hours at 37° C., 5% CO2, in a humidified environment. Media was then carefully and completely removed. Plates were allowed to dry in the dark. Dimethylsulfoxide (DMSO) was added to each well (100 μL/well) and plates were placed on an orbital shaker for 2 hours. […]

Experiment [2] has as its system HCT 116 colon carcinoma. In words: Anchorage Dependent Growth Monolayer Assay (ADGMA), HCT 116. The settings on record: Homo sapiens, 72 h; HCT 116 colon carcinoma cells, 3-day exposure, MTT, A540; * = average of two independent experiments; read-out: IC50 HCT116.
From the text: as §1, §2, §3, §4, §5

The subject of experiment [3] is 1A9 ovarian carcinoma. In words: Anchorage Dependent Growth Monolayer Assay (ADGMA), 1A9. The settings on record: Homo sapiens, Ovarian carcinoma cell, 72 h; 1A9 ovarian carcinoma cells, 3-day exposure, MTT, A540; * = average of two independent experiments.
From the text: as §1, §2, §3, §4, §5

Experiment [4] deals with 1A9PTX22 ovarian carcinoma. The experiment in a line: Anchorage Dependent Growth Monolayer Assay (ADGMA), 1A9PTX22. The following applies: Homo sapiens, 1A9/ptx-22, 72 h; 1A9PTX22 ovarian carcinoma cells (paclitaxel-selected subline), 3-day exposure, MTT, A540; * = average of two independent experiments.
From the text: as §1, §2, §3, §4, §5

A word on the IC50: it is the point on the concentration scale where inhibition reaches its midpoint.

For `C=C/C=C\[C@H](C)[C@H](OC(N)=O)[C@@H](C)[C@H](O)[C@@H](C)C/C(C)=C\C(C)C(O)C(C)/C=C\[C@@H](O)C[C@H]1CCCC(=O)O1` (stereo partly drawn) [Ex. 1, 6-[(2S,3Z,8Z,11S,12R,13S,14S,15S,16Z)-14-[(aminocarbonyl)oxy]-2,6,12-trihydroxy-5,7,9,11,13,15-hexamethyl-3,8,16,18-nonadecatetraenyl]tetrahydro-(6R)-2H-pyran-2-one], the half-maximal inhibitory concentration (IC50) came out at 60 ± 10 nM in experiment [1], 7 ± 5 nM in experiment [2], 6 ± 2 nM in experiment [3] and 7 ± 2 nM in experiment [4].
With `C=C/C=C\[C@H](C)C(OC(N)=O)C(C)C(O)C(C)C/C(C)=C\[C@H](C)[C@@H](O)[C@@H](C)COC(=O)NC1CCCCC1` (stereo partly drawn) [Ex. 2, (5Z,8S,9R,10S,11S,12S,13Z)-11-[(aminocarbonyl)oxy]-3,9-dihydroxy-2,4,6,8, 10,12-hexamethyl-5,13,15-hexadecatrienyl ester cyclohexylcarbamic acid], the concentration for half-maximal inhibition (IC50) in experiment [1] was 3200 nM; in experiment [2] it was 400 nM; in experiment [3] it was 500 nM; in experiment [4] it was 400 nM.
Take `C=C/C=C\[C@H](C)C(OC(N)=O)C(C)C(O)C(C)C/C(C)=C\[C@H](C)[C@@H](O)[C@@H](C)/C=C\COc1ccccc1` (stereo partly drawn) [Ex. 3, (2Z,7Z,10S,11R,12S,13S,14S,15Z)-4,6,8,10,12,14-hexamethyl-1-phenoxy-2,7,15,17-octadecatetraene-5,11,13-triol-13-carbamate]: the IC50 in experiment [1] was 400 ± 100 nM; in experiment [2], 200 ± 100 nM; in experiment [3], 300 ± 90 nM; in experiment [4], 100 ± 40 nM.
`C=C/C=C\[C@H](C)C(OC(N)=O)C(C)C(O)C(C)C/C(C)=C\[C@H](C)[C@@H](O)[C@@H](C)/C=C\C(=O)N(C)c1ccccc1` (stereo partly drawn) [Ex. 4, (2Z,7Z,10S,11R,12S,13S,14S,15Z)-13-[(aminocarbonyl)oxy]-5,11-dihydroxy-N,4,6,8,10,12,14-heptamethyl-N-phenyl 2,7,15,17-octadecatetraenamide]: the concentration for half-maximal inhibition (IC50) is 3200 nM in experiment [1], 800 nM in experiment [2], 500 nM in experiment [3] and 400 nM in experiment [4].
For the compound `C=C/C=C\[C@H](C)C(OC(N)=O)C(C)C(O)C(C)C/C(C)=C\[C@H](C)[C@@H](O)[C@@H](C)CN(C)C(=O)CC1CCCCC1` (some centres unmarked) [Ex. 5], the 50% inhibitory concentration (IC50) in experiment [1] worked out at 600 nM; in experiment [2] it was 300 nM; in experiment [3], 400 nM; in experiment [4], 80 nM.
Take `C=C/C=C\[C@H](C)C(OC(N)=O)C(C)C(O)C(C)C/C(C)=C\[C@H](C)[C@@H](O)[C@@H](C)/C=C\C(O)CC1CCCC1` (stereo partly drawn) [Ex. 6, (2S,3Z,5S,6S,7S,8Z,11S,12R,13R,14S,15S,16Z)-1-cyclopentyl-5,7,9,11,13,15-hexamethyl-3,8,16,18-nonadecatetraene-2,6,12,14-tetrol-14-carbamate]: the IC50 in experiment [1] came to 6 nM; in experiment [2], 1 nM; in experiment [3] it was 0.3 nM; in experiment [4] it was 1 nM.
For `C=C/C=C\[C@H](C)C(OC(N)=O)C(C)C(O)C(C)C/C(C)=C\[C@H](C)[C@@H](O)[C@@H](C)/C=C\C(O)CC(C)C` (stereo partly drawn) [Ex. 7, (2S,3Z,5S,6S,7S,8Z,11S,12R,13R,14S,15S,16Z)-1-isopropyl-5,7,9,11,13,15-hexamethyl-3,8,16,18-nonadecatetraene-2,6,12,14-tetrol-14-carbamate], the IC50 in experiment [1] is 100 nM; in experiment [2], 30 nM; in experiment [3], 30 nM; in experiment [4] it was 60 nM.
With `CC(=O)O[C@H]1C(=O)[C@@]2(C)[C@H]([C@H](OC(=O)c3ccccc3)[C@]3(O)C[C@H](OC(=O)[C@H](O)[C@@H](NC(=O)c4ccccc4)c4ccccc4)C(C)=C1C3(C)C)[C@]1(OC(C)=O)CO[C@@H]1C[C@@H]2O` [Paclitaxel, reference compound], the IC50 is 200 ± 60 nM in experiment [1], 0.3 ± 0.2 nM in experiment [2], 47 ± 7 nM in experiment [3] and 1 ± 1 nM in experiment [4].
